Measurements taken from patent US20200155521A1, “PHARMACEUTICAL COMBINATION FOR TREATMENT OF CANCER” (ArQule, Inc., priority 2018, published 2020).

How the values were obtained:
[1] = system: relative phospho protein and protein levels in xenograft tumor tissues; assay: Reverse phase protein array (RPPA) of xenograft tumor tissues; conditions: normalized for protein loading, linear values; for ER relative protein level / pS6(S240/S244) relative protein level: Vehicle 1.03; for pS6(S235/S236) relative protein level: Vehicle 1.07; for pNDRG1(T346) relative protein level: Vehicle 1.24; for pCDK1(T14) relative protein level: Vehicle 1.40; for p90RSK(T573) relative protein level: Vehicle 1.48; for PLK1 relative protein level: Vehicle 1.55; for MCT4 relative protein level: Vehicle 1.86; for TFRC relative protein level: Vehicle 2.27; for pAkt (S473) relative protein level: Vehicle 3.42
[2] = system: ER+ patient-derived tumor cells with AKTE17K mutation; assay: ER+ patient-derived breast tumor xenograft with AKT1-E17K mutation in athymic nude mice; conditions: Compound 3 at 25 mg/kg, fulvestrant at 2.5 mg/kg, palbociclib at 50 mg/kg
[3] = system: MCF-7 breast cancer cells; assay: Cell titer-Glo assay in MCF-7 cells, combination with Ribociclib; assay type: cell-based; conditions: Compound 3 0 nM
Description: (§1) The effect of combined treatment of Compound 3 with CDK4/6 inhibitor, Ribociclib, in vitro was assessed. 2,000 cells/well for MCF-7 and 5000 cells/well for T47D were in cultured in 100 μL of the appropriate media in opaque 96-well plate. On day two appropriate concentration of test articles were added in duplicate, two plates per cell line. Cells were incubated at 37° C. at 5% CO2 for five days. At the conclusion of the five-day culture period, Cell titer-Glo was added according to the manufacturer's protocol and read on a luminescent plate reader to assess relative cell number and viability (Table 8-A, 8-B, 8-C, and 8-D). The combination index was calculated using Compusyn software (www.combosyn.com) (Table 8-E).

T47D breast cancer cells = assay: Cell titer-Glo assay in T47D cells, combination with Ribociclib; assay type: cell-based; conditions: Compound 3 0 nM
Description: as §1

[4] = system: HCC1954 breast cancer cells; assay: HCC1954 breast cancer xenograft in BALB/c nude mice; assay type: in vivo, mouse; conditions: Compound 3 at 25 mg/kg, paclitaxel at 15 mg/kg; after 3-week treatment
Description: Female BALB/c nude mice were inoculated with 5×10^6 HCC1954 cells suspended in 0.2 mL PBS+Matrigel mixed with 1:1 volume ratio subcutaneously under anesthetized by 1-5% isoflurane. […] Body weight were measured every three days and were expressed as mean (FIG. 13). The data analysis endpoint for this study was Day 21.

Compound | ER relative protein level [1] | pS6(S240/S244) relative protein level [1] | pS6(S235/S236) relative protein level [1] | pNDRG1(T346) relative protein level [1] | pCDK1(T14) relative protein level [1] | p90RSK(T573) relative protein level [1] | PLK1 relative protein level [1] | MCT4 relative protein level [1] | TFRC relative protein level [1] | pAkt (S473) relative protein level [1] | tumor growth inhibition (TGI) [2] | further results
C[C@]12CC[C@@H]3c4ccc(O)cc4C[C@@H](CCCCCCCCC[S+]([O-])CCCC(F)(F)C(F)(F)F)[C@H]3[C@@H]1CC[C@@H]2O (stereo partly drawn) [Fulvestrant] | 0.72 | 1.61 | 1.61 | 1.68 | 1.30 | 1.70 | 1.78 | 1.00 | 1.12 | 4.94 | 68% | 
CC(=O)c1c(C)c2cnc(Nc3ccc(N4CCNCC4)cn3)nc2n(C2CCCC2)c1=O [Palbociclib] | 1.17 | 1.95 | 2.10 | 1.05 | 1.12 | 1.01 | 1.09 | 1.34 | 1.70 | 4.00 | 38% | 
CN(C)C(=O)c1cc2cnc(Nc3ccc(N4CCNCC4)cn3)nc2n1C1CCCC1 [Ribociclib, reference compound] |  |  |  |  |  |  |  |  |  |  |  | Cell Growth Inhibition (%) ([3]; Ribociclib 0.1235 μM): 22.9%; Cell Growth Inhibition (%) ([3]; Ribociclib 0.3704 μM): 21.7%; Cell Growth Inhibition (%) ([3]; Ribociclib 1.111 μM): 20.8%; Cell Growth Inhibition (%) ([3]; Ribociclib 3.333 μM): 35.7%; Cell Growth Inhibition (%) ([3]; Ribociclib 10 μM): 60.1%; Cell Growth Inhibition (%) (T47D breast cancer cells; Ribociclib 0.1235 μM): 5.0%; Cell Growth Inhibition (%) (T47D breast cancer cells; Ribociclib 0.3704 μM): 12.0%; Cell Growth Inhibition (%) (T47D breast cancer cells; Ribociclib 1.111 μM): 11.2%; Cell Growth Inhibition (%) (T47D breast cancer cells; Ribociclib 3.333 μM): 24.1%; Cell Growth Inhibition (%) (T47D breast cancer cells; Ribociclib 10 μM): 25.8%
CC(=O)O[C@H]1C(=O)[C@@]2(C)[C@H]([C@H](OC(=O)c3ccccc3)[C@]3(O)C[C@H](OC(=O)[C@H](O)[C@@H](NC(=O)c4ccccc4)c4ccccc4)C(C)=C1C3(C)C)[C@]1(OC(C)=O)CO[C@@H]1C[C@@H]2O [paclitaxel, Paclitaxel, reference compound] |  |  |  |  |  |  |  |  |  |  |  | TGI [4]: 44%
